# Experimental data from patent US10189853B2, “Conformationally restricted 4-substituted-2,6-dimethylfuro[2,3-d]pyrimidines as anti-tumor agents” (DUQUESNE UNIVERSITY OF THE HOLY SPIRIT, priority 2014, dated 2019).
# Experiments:
# KM12 = assay: NCI 60 cell line panel; type: cell-based; conditions: Homo sapiens, Colon Cancer
# ACHN = assay: NCI 60 cell line panel; type: cell-based; conditions: Homo sapiens, Renal Cancer
# K-562 = assay: NCI 60 cell line panel; type: cell-based; conditions: Homo sapiens, K562, Leukemia
# NCI-H460 = assay: NCI 60 cell line panel; type: cell-based; conditions: Homo sapiens, NSCLC
# RXF 393 = assay: NCI 60 cell line panel; type: cell-based; conditions: Homo sapiens, Renal Cancer
# HT29 = assay: NCI 60 cell line panel; type: cell-based; conditions: Homo sapiens, HT-29, Colon Cancer
# SNB-75 = assay: NCI 60 cell line panel; type: cell-based; conditions: Homo sapiens, CNS Cancer
# OVCAR-5 = assay: NCI 60 cell line panel; type: cell-based; conditions: Homo sapiens, Ovarian cancer
# EKVX = assay: NCI 60 cell line panel; type: cell-based; conditions: Homo sapiens, NSCLC
# CCRF-CEM = assay: NCI 60 cell line panel; type: cell-based; conditions: Homo sapiens, Leukemia
# A431 cancer cells = assay: A431 cytotoxicity (cell proliferation); type: cell-based, human; conditions: Homo sapiens, A-431
# VEGFR-2 = VEGFR-2 (Homo sapiens (Human), UniProt P35968); assay: VEGFR-2 kinase inhibition, phosphotyrosine ELISA cytoblot; type: cell-based; conditions: U251 cells, phosphotyrosine ELISA
# Procedure: (§1) Cells used were tumor cell lines naturally expressing high levels of EGFR (A431), VEGFR-2 (U251), and PDGFR-β (SH-SYSY). […] The reaction was stopped and cells were permeabilized by quickly removing the media from the cells and adding ice-cold Tris-buffered saline (TBS) containing 0.05% Triton X-100, protease inhibitor cocktail and tyrosine phosphatase inhibitor cocktail. The TBS solution was then removed and cells fixed to the plate for 30 min at 60° C. and further incubation in 70% ethanol for an additional 30 min. Cells were further exposed to block (TBS with 1% BSA) for 1 h, washed, and then a horseradish peroxidase (HRP)-conjugated phosphotyrosine (PY) antibody was added overnight.
# MDA-MB-468 = assay: NCI 60 cell line panel; type: cell-based; conditions: Homo sapiens, Breast Cancer
# [1] = tested on: cellular microtubules in A-10 cells; assay: Microtubule depolymerization, indirect immunofluorescence; type: cell-based; conditions: in words
# Procedure: Evaluation of microtubule inhibition was performed using previously described methods.^22 Indirect immunofluorescence was used to evaluate the effects of the compounds on cellular microtubules as described previously.^38 Briefly, A-10 cells were treated for 18 h with vehicle (DMSO) or a compound, and microtubule effects were evaluated microscopically using β-tubulin antibody. The EC50 was calculated from 3 independent experiments and expressed as the mean±SD.
# 786-0 = assay: NCI 60 cell line panel; type: cell-based; conditions: Homo sapiens
# UACC-62 = assay: NCI 60 cell line panel; type: cell-based; conditions: Homo sapiens, Melanoma
# [2] = tested on: M6/6 cells (SK-OV-3 expressing Pgp); assay: Antiproliferative SRB assay; conditions: M6/6 (Pgp) vs SKOV3
# SK-MEL-5 = assay: NCI 60 cell line panel; type: cell-based; conditions: Homo sapiens, Melanoma
# U251 = assay: NCI 60 cell line panel; type: cell-based; conditions: Homo sapiens, U-251, CNS Cancer
# SK-OV-3 = assay: NCI 60 cell line panel; type: cell-based; conditions: Homo sapiens, Ovarian cancer
# NCI-H522 = assay: NCI 60 cell line panel; type: cell-based; conditions: Homo sapiens, NSCLC
# NCI-H23 = assay: NCI 60 cell line panel; type: cell-based; conditions: Homo sapiens, NSCLC
# SN 12C = assay: NCI 60 cell line panel; type: cell-based; conditions: Homo sapiens, SN12C, Renal Cancer
# TK-10 = assay: NCI 60 cell line panel; type: cell-based; conditions: Homo sapiens, Renal Cancer
# SW-620 = assay: NCI 60 cell line panel; type: cell-based; conditions: Homo sapiens, Colon Cancer
# SR = assay: NCI 60 cell line panel; type: cell-based; conditions: Homo sapiens, Leukemia
# HeLa cells = assay: Antiproliferative SRB assay; type: cell-based; conditions: Homo sapiens, HeLa, 48 h, read-out: IC50 ± SD in HeLa
# SNB-19 = assay: NCI 60 cell line panel; type: cell-based; conditions: Homo sapiens, CNS Cancer
# EGFR = EGFR (Homo sapiens (Human), UniProt P00533); assay: EGFR kinase inhibition, phosphotyrosine ELISA cytoblot; type: cell-based; conditions: A431 cells
# Procedure: as §1
# SF-295 = assay: NCI 60 cell line panel; type: cell-based; conditions: Homo sapiens, CNS Cancer
# NCI/ADR-RES = assay: NCI 60 cell line panel; type: cell-based; conditions: Homo sapiens, Ovarian cancer
# LOX IMVI = assay: NCI 60 cell line panel; type: cell-based; conditions: Homo sapiens, Melanoma
# COLO 205 = assay: NCI 60 cell line panel; type: cell-based; conditions: Homo sapiens, Colon Cancer
# MOLT-4 = assay: NCI 60 cell line panel; type: cell-based; conditions: Homo sapiens, Leukemia
# M14 = assay: NCI 60 cell line panel; type: cell-based; conditions: Homo sapiens, Melanoma
# HCT-15 = assay: NCI 60 cell line panel; type: cell-based; conditions: Homo sapiens, Colon Cancer
# MDA-MB-231/ATCC = assay: NCI 60 cell line panel; type: cell-based; conditions: Homo sapiens, Breast Cancer
# OVCAR-3 = assay: NCI 60 cell line panel; type: cell-based; conditions: Homo sapiens, Ovarian cancer
# CAKI-1 = assay: NCI 60 cell line panel; type: cell-based; conditions: Homo sapiens, Renal Cancer
# HCT-116 = assay: NCI 60 cell line panel; type: cell-based; conditions: Homo sapiens, Colon Cancer
# HOP-62 = assay: NCI 60 cell line panel; type: cell-based; conditions: Homo sapiens, NSCLC
# HOP-92 = assay: NCI 60 cell line panel; type: cell-based; conditions: Homo sapiens, NSCLC
# HL-60(TB) = assay: NCI 60 cell line panel; type: cell-based; conditions: Homo sapiens, Leukemia
# SF-539 = assay: NCI 60 cell line panel; type: cell-based; conditions: Homo sapiens, CNS Cancer
# OVCAR-8 = assay: NCI 60 cell line panel; type: cell-based; conditions: Homo sapiens, Ovarian cancer
# DU-145 = assay: NCI 60 cell line panel; type: cell-based; conditions: Homo sapiens, Prostate Cancer
# MDA-435 cells = assay: Antiproliferative SRB assay; type: cell-based; conditions: MDA435, 48 h, read-out: IC50 ± SD in MDA-435 cells
# PC-3 = assay: NCI 60 cell line panel; type: cell-based; conditions: Homo sapiens, Prostate Cancer
# MDA-MB-435 = assay: NCI 60 cell line panel; type: cell-based; conditions: Homo sapiens, Melanoma
# IGROV1 = assay: NCI 60 cell line panel; type: cell-based; conditions: Homo sapiens, IGROV-1, Ovarian cancer
# BT-549 = assay: NCI 60 cell line panel; type: cell-based; conditions: Homo sapiens
# HS 578T = assay: NCI 60 cell line panel; type: cell-based; conditions: Homo sapiens, Breast Cancer
# SF-268 = assay: NCI 60 cell line panel; type: cell-based; conditions: Homo sapiens, CNS Cancer
# SK-MEL-2 = assay: NCI 60 cell line panel; type: cell-based; conditions: Homo sapiens
# OVCAR-4 = assay: NCI 60 cell line panel; type: cell-based; conditions: Homo sapiens, Ovarian cancer
# [3] = tested on: WTβ3 cells (HeLa overexpressing βIII tubulin); assay: Antiproliferative SRB assay; type: cell-based
# MCF7 = assay: NCI 60 cell line panel; type: cell-based; conditions: Homo sapiens, Breast Cancer
# SKOV3 cells = assay: Antiproliferative SRB assay; type: cell-based; conditions: Homo sapiens, SK-OV-3, 48 h, read-out: IC50 ± SD in SKOV3 cells
# EGFR, sequence (P00533 25-1210): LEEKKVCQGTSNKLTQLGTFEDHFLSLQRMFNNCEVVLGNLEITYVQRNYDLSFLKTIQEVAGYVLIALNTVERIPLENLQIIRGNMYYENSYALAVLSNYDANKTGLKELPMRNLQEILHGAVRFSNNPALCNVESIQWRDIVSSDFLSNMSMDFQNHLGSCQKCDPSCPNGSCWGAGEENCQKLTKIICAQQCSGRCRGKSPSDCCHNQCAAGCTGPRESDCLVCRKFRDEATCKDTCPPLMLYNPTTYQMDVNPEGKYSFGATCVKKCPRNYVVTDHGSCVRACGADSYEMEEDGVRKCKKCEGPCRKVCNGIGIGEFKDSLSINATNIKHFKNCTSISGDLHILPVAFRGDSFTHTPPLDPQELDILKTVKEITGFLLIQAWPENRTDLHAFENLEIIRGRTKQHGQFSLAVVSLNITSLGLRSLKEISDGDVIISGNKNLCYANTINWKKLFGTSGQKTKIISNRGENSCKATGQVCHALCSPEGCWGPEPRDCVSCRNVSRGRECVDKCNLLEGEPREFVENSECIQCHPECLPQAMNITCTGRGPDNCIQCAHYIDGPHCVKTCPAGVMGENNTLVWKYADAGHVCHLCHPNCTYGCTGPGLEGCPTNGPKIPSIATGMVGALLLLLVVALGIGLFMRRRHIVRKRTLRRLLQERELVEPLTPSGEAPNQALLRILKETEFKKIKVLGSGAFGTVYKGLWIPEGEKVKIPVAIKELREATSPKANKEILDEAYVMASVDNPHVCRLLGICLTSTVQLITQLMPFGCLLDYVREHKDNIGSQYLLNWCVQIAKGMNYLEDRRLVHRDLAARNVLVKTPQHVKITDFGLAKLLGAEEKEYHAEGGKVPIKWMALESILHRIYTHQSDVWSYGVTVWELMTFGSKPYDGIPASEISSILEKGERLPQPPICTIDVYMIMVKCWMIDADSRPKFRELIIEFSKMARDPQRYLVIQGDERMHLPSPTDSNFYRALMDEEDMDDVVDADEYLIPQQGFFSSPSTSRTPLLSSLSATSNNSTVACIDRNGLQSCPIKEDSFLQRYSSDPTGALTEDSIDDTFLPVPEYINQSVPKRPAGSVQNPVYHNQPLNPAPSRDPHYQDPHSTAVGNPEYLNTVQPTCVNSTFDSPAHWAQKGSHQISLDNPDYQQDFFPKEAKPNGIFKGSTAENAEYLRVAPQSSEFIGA
# VEGFR-2, sequence (P35968 20-1356): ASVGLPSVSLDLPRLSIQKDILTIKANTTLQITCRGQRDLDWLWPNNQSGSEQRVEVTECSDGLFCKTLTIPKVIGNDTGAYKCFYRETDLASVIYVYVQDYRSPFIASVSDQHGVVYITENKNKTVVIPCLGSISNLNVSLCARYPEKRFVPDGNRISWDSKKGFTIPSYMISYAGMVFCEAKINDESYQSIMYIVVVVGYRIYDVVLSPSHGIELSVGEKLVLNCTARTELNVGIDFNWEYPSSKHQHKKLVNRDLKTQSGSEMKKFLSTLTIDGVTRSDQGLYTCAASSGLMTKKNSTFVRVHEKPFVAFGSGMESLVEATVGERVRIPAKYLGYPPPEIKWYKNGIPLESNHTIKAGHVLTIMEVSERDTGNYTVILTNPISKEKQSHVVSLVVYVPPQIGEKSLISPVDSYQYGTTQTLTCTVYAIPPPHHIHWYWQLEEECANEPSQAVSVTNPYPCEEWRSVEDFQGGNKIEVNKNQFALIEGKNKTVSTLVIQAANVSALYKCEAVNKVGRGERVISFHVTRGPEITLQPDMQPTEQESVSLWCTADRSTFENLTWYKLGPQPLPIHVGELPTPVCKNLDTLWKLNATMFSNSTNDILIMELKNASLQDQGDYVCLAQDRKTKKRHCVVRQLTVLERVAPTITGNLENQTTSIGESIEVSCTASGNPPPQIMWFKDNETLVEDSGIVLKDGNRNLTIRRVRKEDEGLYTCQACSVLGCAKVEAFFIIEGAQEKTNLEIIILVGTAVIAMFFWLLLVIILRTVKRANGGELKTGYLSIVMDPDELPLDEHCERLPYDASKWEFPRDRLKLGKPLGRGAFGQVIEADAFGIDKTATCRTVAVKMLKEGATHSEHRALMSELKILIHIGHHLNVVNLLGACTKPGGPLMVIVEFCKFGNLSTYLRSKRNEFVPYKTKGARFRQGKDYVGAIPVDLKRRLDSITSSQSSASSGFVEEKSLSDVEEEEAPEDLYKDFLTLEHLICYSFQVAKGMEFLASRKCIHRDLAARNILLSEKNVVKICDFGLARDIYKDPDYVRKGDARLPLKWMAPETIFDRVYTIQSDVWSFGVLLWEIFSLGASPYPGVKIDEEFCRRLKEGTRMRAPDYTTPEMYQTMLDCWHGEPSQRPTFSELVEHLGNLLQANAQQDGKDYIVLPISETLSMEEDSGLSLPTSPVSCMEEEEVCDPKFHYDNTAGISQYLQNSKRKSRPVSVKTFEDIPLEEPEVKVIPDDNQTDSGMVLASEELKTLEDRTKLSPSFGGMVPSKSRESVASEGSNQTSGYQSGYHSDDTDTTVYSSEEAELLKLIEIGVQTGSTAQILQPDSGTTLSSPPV
compound,measurement,setting,value
"Cc1nc(N(C)c2ccc3c(c2)CCO3)c2cc(C)oc2n1 [Compound 6, N-(2,3-dihydro-1-benzofuran-5-yl)-N,2,6-trimethylfuro[2,3-d]pyrimidin-4-amine]",GI50,KM12,0.0401 µM
same,GI50,ACHN,0.0642 µM
same,GI50,K-562,0.0317 µM
same,GI50,NCI-H460,0.042 µM
same,GI50,RXF 393,0.0212 µM
same,GI50,HT29,0.0324 µM
same,GI50,SNB-75,0.0304 µM
same,GI50,OVCAR-5,0.262 µM
same,GI50,EKVX,0.07 µM
same,GI50,CCRF-CEM,0.0581 µM
same,IC50,A431 cancer cells,0.0383 ± 0.0042 µM
same,IC50,VEGFR-2,0.0067 ± 0.00081 µM
same,GI50,MDA-MB-468,0.0221 µM
same,effect on cellular microtubules,[1],dose-dependent loss of cellular microtubules
same,GI50,786-0,0.0804 µM
same,GI50,UACC-62,0.0613 µM
same,Rr value (relative resistance),[2],1.3
same,GI50,SK-MEL-5,0.0314 µM
same,GI50,U251,0.0397 µM
same,GI50,SK-OV-3,0.0376 µM
same,GI50,NCI-H522,0.0129 µM
same,GI50,NCI-H23,0.0439 µM
same,GI50,SN 12C,0.0972 µM
same,GI50,TK-10,0.0502 µM
same,GI50,SW-620,0.0416 µM
same,GI50,SR,0.0366 µM
same,IC50,HeLa cells,0.105 ± 0.0058 µM
same,GI50,SNB-19,0.0565 µM
same,IC50,EGFR,0.226 ± 0.0502 µM
same,GI50,SF-295,0.0305 µM
same,GI50,NCI/ADR-RES,0.0265 µM
same,GI50,LOX IMVI,0.0456 µM
same,GI50,COLO 205,0.0403 µM
same,GI50,MOLT-4,0.0767 µM
same,GI50,M14,0.0348 µM
same,GI50,HCT-15,0.0389 µM
same,GI50,MDA-MB-231/ATCC,0.148 µM
same,GI50,OVCAR-3,0.0245 µM
same,GI50,CAKI-1,0.0401 µM
same,GI50,HCT-116,0.0451 µM
same,GI50,HOP-62,0.0396 µM
same,GI50,HOP-92,0.0458 µM
same,GI50,HL-60(TB),0.0276 µM
same,GI50,SF-539,0.0316 µM
same,GI50,OVCAR-8,0.063 µM
same,GI50,DU-145,0.0441 µM
same,IC50,MDA-435 cells,0.0962 ± 0.013 µM
same,GI50,PC-3,0.0522 µM
same,GI50,MDA-MB-435,0.014 µM
same,GI50,IGROV1,0.0629 µM
same,GI50,BT-549,0.0772 µM
same,GI50,HS 578T,0.031 µM
same,GI50,SF-268,0.0139 µM
same,GI50,SK-MEL-2,0.0264 µM
same,GI50,OVCAR-4,0.0834 µM
same,IC50,"[3]; Homo sapiens, HeLa, SRB, 48 h, read-out: IC50 ± SD in WTβ3",0.094 ± 0.007 µM
same,Rr value (relative resistance),[3]; WTβ3 vs HeLa,0.9
same,GI50,MCF7,0.0402 µM
same,IC50,SKOV3 cells,0.12 ± 0.005 µM
